Each structure is given as a SMILES string.

Experiment [1] deals with proteins enriched from Panc89 lysate. In words: Competitive pulldown with NK264-functionalized beads, mass spectrometry. The experiment is classed as binding, human. Conditions: 10 µM competitor. Here is the method:
The next steps were carried out at room temperature unless noted otherwise. Afterwards, the samples were mixed shortly (1 min, 1000 rpm) and collected by short centrifugation (10 s, 200 ×g). Protein binding was induced by the addition of an equal volume of pure ethanol (10 min, 1000 rpm), the beads were collected by a brief centrifugation step (10 s, 200 ×g) and the plate was placed on a magnetic stand. Beads were allowed to bind for at least 5 min before the supernatant was removed. The beads were then taken up in 180 µL 80% ethanol and transferred to a fresh multiwell plate.
Samples were incubated at 37 °C for 19 h while shaking (1300 rpm). On the next day, the samples were briefly centrifuged (10 s, 200 ×g) and placed on a magnet for 5 min. The clear solution containing the tryptic peptides was transferred to a fresh multiwell plate. The beads were taken up in 47 µL 25 mM ammonium bicarbonate and incubated while shaking (10 min, 1000 rpm).

Experiment [2] relates to Panc89 cells. In words: Confluence measurement (cell growth), Panc89. Type of experiment: cell-based, human. Conditions: Panc89, 1-10 µM, 72 h, 25 mM or 5 mM D-glucose.
In another experiment the target is HiBiT-USP7 (Homo sapiens, UniProt Q93009). Description: HiBiT USP7 degradation assay, MV4-11 cells. Type of experiment: cell-based. Particulars: MV4-11 HiBiT-USP7, 6 h and 24 h. Here is the method: HiBiT-USP7 construct was cloned by extraction of USP7 fragment from plasmid pQHA-USP7 WT puroR (Addgene #46753) using appropriate restriction sites. The USP7 fragment was then ligated into the pRRL-PGK-HiBiT entry vector to generate the plasmid.
Sequence of HiBiT-USP7 (Q93009 whole entry, the tested form may be a part): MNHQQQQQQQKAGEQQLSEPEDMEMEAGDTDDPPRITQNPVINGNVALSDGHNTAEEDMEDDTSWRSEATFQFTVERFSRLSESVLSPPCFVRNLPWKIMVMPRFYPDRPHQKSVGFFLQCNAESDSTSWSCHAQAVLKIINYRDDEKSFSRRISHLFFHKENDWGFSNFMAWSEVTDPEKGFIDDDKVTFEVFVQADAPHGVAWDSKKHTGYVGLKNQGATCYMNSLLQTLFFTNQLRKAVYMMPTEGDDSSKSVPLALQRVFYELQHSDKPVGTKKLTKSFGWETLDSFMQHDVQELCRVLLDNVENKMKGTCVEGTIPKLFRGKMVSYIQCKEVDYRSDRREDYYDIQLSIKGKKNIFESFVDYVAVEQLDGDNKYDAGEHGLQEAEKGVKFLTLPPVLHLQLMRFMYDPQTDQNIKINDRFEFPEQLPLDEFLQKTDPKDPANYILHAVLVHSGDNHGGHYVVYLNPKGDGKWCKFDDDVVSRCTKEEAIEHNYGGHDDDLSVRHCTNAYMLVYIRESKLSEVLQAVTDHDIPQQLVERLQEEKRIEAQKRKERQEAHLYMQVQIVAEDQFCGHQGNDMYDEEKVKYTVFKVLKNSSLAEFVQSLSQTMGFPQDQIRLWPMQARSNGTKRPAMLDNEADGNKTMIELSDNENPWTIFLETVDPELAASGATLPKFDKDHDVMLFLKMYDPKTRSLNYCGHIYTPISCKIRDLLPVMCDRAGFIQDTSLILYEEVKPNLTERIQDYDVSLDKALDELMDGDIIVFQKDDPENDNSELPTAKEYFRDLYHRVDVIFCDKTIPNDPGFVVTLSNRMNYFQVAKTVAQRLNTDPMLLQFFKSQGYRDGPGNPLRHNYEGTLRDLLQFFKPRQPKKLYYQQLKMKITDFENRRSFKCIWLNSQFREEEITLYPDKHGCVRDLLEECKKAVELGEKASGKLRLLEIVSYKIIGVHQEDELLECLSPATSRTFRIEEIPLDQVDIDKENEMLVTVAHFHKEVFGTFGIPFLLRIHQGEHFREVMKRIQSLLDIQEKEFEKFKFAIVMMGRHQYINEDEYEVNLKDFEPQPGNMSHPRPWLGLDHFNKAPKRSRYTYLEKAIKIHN
Lentiviral infection was used to generate stable a MV4-11 HiBiT cell line. Lentivirus was produced using plasmids psPAX2, pMD2.G, and HiBiT-USP7 plasmid in HEK293 cells. MV4-11 cells were infected with filtered virus supernatant and selected after 48 h of infection for the generation of the stable MV4-11^HiBiT-USP7 cell line.
The assay was performed as described previously. Briefly, MV4-11^HiBiT-USP7 cells were seeded and treated with compounds for the indicated time. Nano-Glo HiBiT Lytic Detection System (Promega) was used for the assay and luminescence was measured on a Tecan Spark microplate reader (Tecan). DC50 values were calculated using the sigmoidal dose-response (four parameters) equation in GraphPad Prism and are given as the concentration where 50% of the total signal was remaining. Dmax values are given as the maximum degradation observed at any concentration.

Experiment [3] relates to Ma-Mel-47 USP7 K.O. cells. Description: Medium color switch (images), Ma-Mel-47 USP7 K.O. cells. Type of experiment: cell-based, human. Conditions: Ma-Mel-47 USP7-KO, 72 h, 5 µM NK192, 10 µM FT671, 1 µM NK266.
For experiment [4], the target named is T1, human USP7 full length protein (Homo sapiens, UniProt Q93009).
T1 construct: human USP7 full length protein
T1 sequence (Q93009 whole entry): as the sequence (Q93009 whole entry, the tested form may be a part) above
In words: USP7 inhibition assay (Ubiquitin-Rhodamine110Gly cleavage). Type of experiment: biochemical. Conditions: Ub-RhoG cleavage, read-out: IC50 (half-maximal inhibition). Here is the method: USP7 inhibitors in DMSO were diluted in UbR buffer (40 mM Tris-HCl pH 8, 150 mM NaCl, 1 mM TCEP, 0.1 mg/mL BSA, 0.01% Tween20) to a concentration of 80 μM (4x). This stock was then further diluted in an 11-times serial dilution in UbR buffer containing 4% DMSO (4x). To this was added the same volume of human USP7 full length protein[59] […] The assay was initiated upon addition of 10 μL per well of Ubiquitin-Rhodamine110Gly (Ub-RhoG) (100 nM in UbR buffer, 2x). […] Normalization was carried out using samples featuring either no inhibitor or no enzyme as respective controls. […] Slopes of fluorescence over time curves were determined with Microsoft Excel through linear regression using the first 15 min of each measurement.

Experiment [5] concerns Panc89 cells. In words: Total proteome analysis, DDA mass spectrometry, Panc89 cells. The experiment is classed as cell-based, H. sapiens. Particulars: DDA Panc89, 5 µM, 6, 24 or 72 h. As to the method:
Following treatment, cells were harvested, washed twice with PBS, and pellets were flash frozen in liquid nitrogen before being stored at −80 °C. Samples were prepared using the single-pot, solid-phase-enhanced sample-preparation (SP3) strategy. All buffers and solutions were prepared with mass spectrometry (MS)-grade water (Honeywell). Cell pellets were taken up in 100 µL 1x sample buffer (50 mM Hepes pH 8.0, 1% (wt/v) SDS, 1% (v/v) NP-40, 10 mM TCEP, 40 mM chloroacetamide) and samples were heated at 90 °C for 5 min prior to sonication with a Bioruptor UCD-300 (Diagenode) for ten cycles of 1 min pulse and 30 s pause at high power. The samples were then supplemented with Benzonase (20 U/sample) and sonified for 5 min in a water bath (Bandelin) followed by 30 min incubation at […].
The protein extracts were then centrifuged (20000 ×g, RT, 40 min) and the protein concentration of the cleared lysates was determined using the Pierce 660 nm Protein Assay Reagent (#22660; Thermo Scientific) with the Ionic Detergent Compatibility Reagent (#22663; Thermo Scientific) according to the manufacturers’ instructions. Next, 15 µg of total protein per sample in a volume of 100 µL sample buffer was transferred to a 500 µL 96-well plate and treated with 7 U of benzonase (#71206; Merck Millipore) in dilution buffer (20 mM Hepes pH 8.0, 2 mM MgCl2) at 37 °C for 30 min with agitation at 1500 rpm. After Benzonase treatment samples were heated to 90 °C for 5 min and after cooling down to room temperature, iodoacetamide to a final concentration of 10 mM was added for complete alkylation of cysteines (37 °C, 15 min, 1000 rpm, in the dark).
Then, 3 µL of a 50 µg/µL 1:1 mixture of hydrophilic (#45152105050250) and hydrophobic (#65152105050250) carboxylate modified Sera-Mag SpeedBeads (Cytiva), that were washed twice with MS-grade water, were added to the samples. The next steps were carried out at room temperature unless noted otherwise. Afterwards, the samples were mixed shortly (1 min, 1000 rpm) and collected by short centrifugation (10 s, 200 ×g). […]

As to `C[C@H](CC(=O)N1CCC(O)(Cn2cnc3c(cnn3-c3ccc(F)cc3)c2=O)CC1)c1ccccc1` [NK192], in experiment [1], the “Proteome-wide target specificity (in words)” value is given as “very high specificity for USP7”. Besides, in the experiment on Panc89 cells [2], the “Cell growth (in words)” value is “not affected”. For the same compound, the “HiBiT-USP7 levels (in words)” value at HiBiT-USP7 is on record as “partial reduction of USP7 levels”. For the same compound, the “Change of media color (in words)” value in experiment [3] is reported as “the same change of media color”. The half-maximal inhibitory concentration (IC50) in experiment [4] was found to be 20 nM. Also, the “USP7 protein level changes (in words)” value in the experiment on Panc89 cells [5] is “did not lead to USP7 protein level changes beyond the significance threshold”.
